Experiments:
[1] = tested on: up-regulation of ICAM-1 (CD54) by IFNγ in U937 human monocytic cells; assay: U937 IFNγ ICAM1 FACS Assay; type: cell-based; details: Homo sapiens, U-937, U937 cells stimulated with IFNγ, ICAM-1 expression by FACS; read-out: IC50, Example 44
Summary of the method: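 Readout was the geometric-mean APC anti-ICAM-1 signal by FACS on live U937 monocytic cells, with % live cells also recorded. Cells were exposed to compounds (8 points, 3-fold dilutions, duplicates) for 30 min at 37 °C before 18–24 h of IFNγ stimulation. EC50 values were computed from the dose curve.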

[2] = tested on: IL-4 stimulated expression of CD23 in human Ramos B cells (JAK-1 and JAK-3); assay: Assay for Ramos B-Cell Line Stimulated with IL-4 (CD23 upregulation, FACS); type: cell-based; details: Homo sapiens, Ramos, Ramos B cells stimulated with IL-4, CD23 expression by FACS; read-out: IC50, Example 41
Summary of the method: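 Read-out is surface CD23 by FACS after anti-CD23-PE staining, giving IC50. Before this, cells were stimulated 20-24 h with 50 units/mL (final) human IL-4, following 1 h compound or vehicle pre-treatment at 37 °C; log-phase Ramos B cells, 5×10^4 per well in 5% serum RPMI.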

| IC50 [1] | IC50 [2] | Compound |
| --- | --- | --- |
| 565 nM | 56.3 nM | C#CCOc1ccc(Nc2nc(Nc3ccc(C)c(S(N)(=O)=O)c3)ncc2F)cc1 [VI-53, N2-(3-Aminosulfonyl-4-methylphenyl)-5-fluoro-N4-[4-(prop-2-ynyloxy)phenyl]-2,4-pyrimidinediamine] |
| 2800 nM | 183 nM | Cc1ccc(Nc2ncc(F)c(Nc3ccc(O)cc3)n2)cc1S(N)(=O)=O [VI-102, N2-(3-Aminosulfonyl-4-methylphenyl)-5-fluoro-N4-[4-hydroxyphenyl]-2,4-pyrimidinediamine] |
| 701 nM | 35.8 nM | Cc1ccc(Nc2ncc(C)c(Nc3ccc4c(c3)NC(=O)CO4)n2)cc1S(N)(=O)=O [VII-30, N2-(3-Aminosulphonyl-4-methylphenyl)-5-methyl-N4-(3-oxo-benz[1,4]oxazin-6-yl)-2,4-pyrimidinediamine] |
| 31800 nM | 602 nM | CN1C(=O)C(C)(C)S(=O)(=O)c2ccc(Nc3nc(Nc4ccc(S(N)(=O)=O)cc4)ncc3F)cc21 [VII-12, N2-(4-Aminosulphonylphenyl)-5-fluoro-N4-(2,2,4-trimethyl-1,1,3-trioxo-benzo[1,4]thiazin-6-yl)-2,4-pyrimidinediamine] |
| 1370 nM | 122 nM | C#CCOc1ccc(Nc2nc(Nc3ccc(Cl)c(S(N)(=O)=O)c3)ncc2F)cc1 [VI-55, N2-(3-Aminosulfonyl-4-chlorophenyl)-5-fluoro-N4-[4-(prop-2-ynyloxy)phenyl]-2,4-pyrimidinediamine] |
| 1100 nM | 136 nM | NS(=O)(=O)c1cccc(Nc2ncc(F)c(Nc3ccc4sccc4c3)n2)c1 [VII-58, N2-(3-Aminosulfonylphenyl)-N4-(benzothiophen-5-yl)-5-fluoro-2,4-pyrimidinediamine] |
| 3540 nM | 124 nM | Cc1ccc(Nc2ncc(F)c(Nc3cccc4cccnc34)n2)cc1S(N)(=O)=O [VII-77, N2-(3-Aminosulfonyl-4-methylphenyl)-5-fluoro-N4-(quinolin-8-yl)-2,4-pyrimidinediamine] |
| 2130 nM | 152 nM | NS(=O)(=O)c1cccc(Nc2ncc(F)c(Nc3ccc(C(F)(F)F)cc3)n2)c1 [VI-51, N2-(3-Aminosulfonylphenyl)-5-fluoro-N4-(4-trifluoromethylphenyl)-2,4-pyrimidinediamine] |
| 410 nM | 86.9 nM | C#CCOc1ccc(Nc2nc(Nc3ccc(C)c(S(N)(=O)=O)c3)ncc2F)cc1F [VI-60, N2-(3-Aminosulfonyl-4-methylphenyl)-5-fluoro-N4-[3-fluoro-4-(prop-2-ynyloxy)phenyl]-2,4-pyrimidinediamine] |
| 535 nM | 113 nM | NS(=O)(=O)c1cccc(Nc2ncc(F)c(Nc3ccc(CCCF)cc3)n2)c1 [VI-83, N2-(3-Aminosulfonylphenyl)-5-fluoro-N4-[4-(3-fluoropropyl)phenyl]-2,4-pyrimidinediamine] |
| 2760 nM | 65.4 nM | NS(=O)(=O)c1cccc(Nc2ncc(F)c(Nc3ccc4ncccc4c3)n2)c1 [VII-70, N2-(3-Aminosulfonylphenyl)-5-fluoro-N4-(quinolin-6-yl)-2,4-pyrimidinediamine] |
| 1810 nM | 102 nM | C#CCOc1ccc(Nc2nc(Nc3ccc(C)c(S(=O)(=O)NC)c3)ncc2F)cc1 [VI-68, 5-Fluoro-N2-(4-methyl-3-methylaminosulfonylphenyl)-N4-[4-(prop-2-ynyloxy)phenyl]-2,4-pyrimidinediamine] |
| 2040 nM | 132 nM | NS(=O)(=O)c1cccc(Nc2ncc(F)c(Nc3ccc(CCCCO)cc3)n2)c1 [VI-89, N2-(3-Aminosulfonylphenyl)-5-fluoro-N4-[4-(4-hydroxybutyl)phenyl]-2,4-pyrimidinediamine] |
| 1160 nM | 83.5 nM | NS(=O)(=O)c1cccc(Nc2ncc(F)c(Nc3ccc(CCCCF)cc3)n2)c1 [VI-92, N2-(3-Aminosulfonylphenyl)-5-fluoro-N4-[4-(4-fluorobutyl)phenyl]-2,4-pyrimidinediamine] |
| 990 nM | 76.7 nM | Cc1ccc(Nc2ncc(F)c(Nc3ccc4ncccc4c3)n2)cc1S(N)(=O)=O [VII-69, N2-(3-Aminosulfonyl-4-methylphenyl)-5-fluoro-N4-(quinolin-6-yl)-2,4-pyrimidinediamine] |
| 577 nM | 37.8 nM | CN1C(=O)CSc2ccc(Nc3nc(Nc4cccc(S(N)(=O)=O)c4)ncc3F)cc21 [VII-49, N2-(3-Aminosulfonylphenyl)-5-fluoro-N4-(4-methyl-3-oxo-benz[1,4]thiazin-6-yl)-2,4-pyrimidinediamine] |
| 673 nM | 31.1 nM | COc1ccc(Nc2nc(Nc3ccc(N4CCN(C)CC4)c(S(N)(=O)=O)c3)ncc2F)cc1Cl [VI-116, N2-[3-Aminosulfonyl-4-(4-methylpiperazine-1-yl)phenyl]-N4-(3-chloro-4-methoxyphenyl)-5-fluoro-2,4-pyrimidinediamine] |

The next lines start with the compound.

| Compound | IC50 [1] | IC50 [2] |
| --- | --- | --- |
| COc1cc(Nc2nc(Nc3ccc(C)c(S(N)(=O)=O)c3)ncc2F)ccc1Cl [VI-5, N2-(3-Aminosulfonyl-4-methylphenyl)-N4-(4-chloro-3-methoxyphenyl)-5-fluoro-2,4-pyrimidinediamine] | 1390 nM | 40.5 nM |
| Cc1ccc(Nc2ncc(F)c(Nc3ccc4c(c3)N(CC#N)C(=O)CS4)n2)cc1S(N)(=O)=O [Compound V-13, N2-(3-Aminosulphonyl4-methylphenyl)-5-fluoro-N4-(3-oxo-4-cyanomethyl-benzo[1,4]thiazin-6-yl)-2,4-pyrimidinediamine] | 1200 nM | 52.9 nM |
| Cc1ccc(Nc2ncc(F)c(Nc3cccc4c(CC#N)c[nH]c34)n2)cc1S(N)(=O)=O [IX-16, N2-(3-Aminosulfonyl-4-methylphenyl)-N4-(3-cyanomethyl-1H-indol-7-yl)-5-fluoro-2,4-pyrimidinediamine] | 2510 nM | 210 nM |
| Cc1ccc(Nc2ncc(F)c(Nc3ccc4c(c3)N(CC#N)C(=O)CO4)n2)cc1S(N)(=O)=O [Compound V-8, N2-(3-Aminosulphonyl-4-methylphenyl)-5-fluoro-N4-[3-oxo-4-cyanomethyl-benz[1,4]oxazin-6-yl]-2,4-pyrimidinediamine] | 620 nM | 29.1 nM |
| COc1cc(Nc2nc(Nc3ccc(Cl)c(S(N)(=O)=O)c3)ncc2F)ccc1Cl [VI-11, N2-(3-Aminosulfonyl-4-chlorophenyl)-N4-(4-chloro-3-methoxyphenyl)-5-fluoro-2,4-pyrimidinediamine] | 7140 nM | 259 nM |
| Cc1ccc(Nc2ncc(F)c(Nc3ccc(C(F)(F)F)cc3)n2)cc1S(N)(=O)=O [VI-50, N2-(3-Aminosulfonyl-4-methylphenyl)-5-fluoro-N4-(4-trifluoromethylphenyl)-2,4-pyrimidinediamine] | 1880 nM | 217 nM |
| N#CCN1C(=O)CSc2ccc(Nc3nc(Nc4ccc(S(N)(=O)=O)cc4)ncc3F)cc21 [Compound V-11, N2-(4-Aminosulphonylphenyl)-5-fluoro-N4-(3-oxo-4-cyanomethyl-benzo[1,4]thiazin-6-yl)-2,4-pyrimidinediamine] | 1420 nM | 69.8 nM |
| NS(=O)(=O)c1cccc(Nc2ncc(F)c(Nc3ccc(C(=O)N4CCSCC4)cc3)n2)c1 [IX-34, N2-(3-Aminosulfonylphenyl)-5-fluoro-N4-[4-(4-thiomorpholinyl)carbonylphenyl]-2,4-pyrimidinediamine] | 3950 nM | 582 nM |
| C#CCn1ccc2cc(Nc3nc(Nc4cccc(S(N)(=O)=O)c4)ncc3F)ccc21 [IX-2, N2-(3-Aminosulfonylphenyl)-5-fluoro-N4-[1-(propyn-3-yl)indol-5-yl]-2,4-pyrimidinediamine] | 1770 nM | 79.5 nM |
| NS(=O)(=O)c1cccc(Nc2ncc(F)c(Nc3cccc(-c4cnco4)c3)n2)c1 [IV-1, N2-(3-Aminosulfonylphenyl)-5-fluoro-N4-[3-(1,3-oxazol-5-yl)phenyl]-2,4-pyrimidinediamine] | 272 nM | 73.6 nM |
| COc1ccc(Nc2nc(Nc3cc(C)c(Cl)c(S(N)(=O)=O)c3)ncc2F)cc1Cl [VI-17, N2-(3-Aminosulfonyl-4-chloro-5-methylphenyl)-N4-(3-chloro-4-methoxyphenyl)-5-fluoro-2,4-pyrimidinediamine] | 454 nM | 43.4 nM |
| COc1ccc(CN2C(=O)C(C)Sc3ccc(Nc4nc(Nc5ccc(S(N)(=O)=O)cc5)ncc4F)cc32)cc1 (racemic) [Compound V-10, (R/S)-N2-(4-Aminosulphonylphenyl)-5-fluoro-N4-[2-methyl-3-oxo-4-(4-methoxybenzyl)-benzo[1,4]thiazin-6-yl]-2,4-pyrimidinediamine] | 2700 nM | 261 nM |
| COc1ccc(Nc2nc(Nc3cc(C)c(F)c(S(N)(=O)=O)c3)ncc2F)cc1Cl [VI-15, N2-(3-Aminosulfonyl-4-fluoro-5-methylphenyl)-N4-(3-chloro-4-methoxyphenyl)-5-fluoro-2,4-pyrimidinediamine] | 767 nM | 45 nM |
| Cc1ccc(Nc2ncc(F)c(Nc3ccc4c(CC#N)c[nH]c4c3)n2)cc1S(N)(=O)=O [IX-11, N2-(3-Aminosulfonyl-4-methylphenyl)-N4-(3-cyanomethyl-1H-indol-6-yl)-5-fluoro-2,4-pyrimidinediamine] | 2240 nM | 115 nM |
| Cc1ccc(Nc2ncc(F)c(Nc3ccc(C(=O)N4CCSCC4)cc3)n2)cc1S(N)(=O)=O [IX-35, N2-(3-Aminosulfonyl-4-methylphenyl)-5-fluoro-N4-[4-(4-thiomorpholinyl)carbonylphenyl]-2,4-pyrimidinediamine] | 2100 nM | 455 nM |

Reference: patent US11827628B2, “Compositions and methods for inhibition of the JAK pathway” (Rigel Pharmaceuticals, Inc., priority 2005, dated 2023)
